Assay results as given in patent US10927105B1 (Lundbeck La Jolla Research Center, Inc., priority 2017, dated 2021).

Molecular target: MAGL (Homo sapiens (Human), UniProt Q99685)
Experiment: In vitro competitive activity-based protein profiling (human prefrontal cortex membrane fractions, FP-Rh probe), MAGL band
Conditions: read-out: MAGL IC50 (μM) (human); human prefrontal cortex membrane fractions
Description: Biological Evaluation In Vitro Competitive Activity-Based Protein Profiling.
Proteomes (mouse brain membrane fraction for mouse assays; human prefrontal cortex membrane fractions for human assays) (50 mL, 1.0 mg/mL total protein concentration) were preincubated with varying concentrations of inhibitors at 37° C. After 30 min, FP-Rh (1.0 mL, 50 mM in DMSO) was added and the mixture was incubated for another 30 min at 37° C. Reactions were quenched with SDS loading buffer (15 μL-4×) and run on SDS-PAGE.

Sequence of MAGL (Q99685 whole entry): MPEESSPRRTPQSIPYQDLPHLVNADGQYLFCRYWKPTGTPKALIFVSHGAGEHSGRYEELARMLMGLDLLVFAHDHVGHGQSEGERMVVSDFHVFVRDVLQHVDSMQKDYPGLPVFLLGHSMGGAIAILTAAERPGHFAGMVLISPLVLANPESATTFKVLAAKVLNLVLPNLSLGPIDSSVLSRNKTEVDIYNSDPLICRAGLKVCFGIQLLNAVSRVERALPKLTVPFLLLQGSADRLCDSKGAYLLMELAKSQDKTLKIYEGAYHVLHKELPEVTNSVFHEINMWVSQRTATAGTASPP

Structure (SMILES)	IC50 [µM]
O=C(O)c1nn(C(=O)N2CCN(Cc3cccc(Oc4cc(C(F)(F)F)ccn4)c3)CC2)cc1Cl [Example 399, 4-chloro-1-(4-(3-((4-(trifluoromethyl)-pyridin-2-yl)oxy)benzyl)piperazine-1-carbonyl)-1H-pyrazole-3-carboxylic acid]	< 0.1
CNC(=O)c1ccn(C(=O)N2CC3CN(Cc4ccc(Cl)cc4)CC3C2)n1 (stereo not shown) [Example 424, 1-(5-(4-chlorobenzyl)-octahydropyrrolo-[3,4-c]pyrrole-2-carbonyl)-N-methyl-1H-pyrazole-3-carboxamide]	< 0.1
NC(=O)c1ccn(C(=O)N2CCC3(CCN(Cc4cc(Cl)ccc4Cl)C3)C2)n1 (stereo not shown) [Example 426, 1-(7-(2,5-dichlorobenzyl)-2,7-diazaspiro[4.4-]-nonane-2-carbonyl)-1H-pyrazole-3-carboxamide]	< 0.1
CNC(=O)c1ccn(C(=O)N2CCC3(CCN(Cc4cc(Cl)ccc4Cl)C3)C2)n1 (stereo not shown) [Example 428, 1-(7-(2,5-dichlorobenzyl)-2,7-diazaspiro[4.4]-nonane-2-carbonyl)-N-methyl-1H-pyrazole-3-carboxamide]	< 0.1
CNC(=O)c1ccn(C(=O)N2CC3CN(Cc4cc(Cl)ccc4Cl)CC3C2)n1 (stereo not shown) [Example 430, 1-(5-(2,5-dichlorobenzyl)-octahydropyrrolo-[3,4-c]pyrrole-2-carbonyl)-N-methyl-1H-pyrazole-3-carboxamide]	< 0.1
CNC(=O)c1ccn(C(=O)N2CC3CN(Cc4cccc(C(F)(F)F)c4)CC3C2)n1 (stereo not shown) [Example 432, N-methyl-1-(5-(3-(trifluoromethyl)-benzyl)-octahydropyrrolo-[3,4-c]pyrrole-2-carbonyl)-1H-pyrazole-3-carboxamide]	< 0.1
CNC(=O)c1ccn(C(=O)N2CCC3(CCN(Cc4cc(Cl)cc(C(F)(F)F)c4)C3)C2)n1 (stereo not shown) [Example 435, 1-(7-(3-chloro-5-(trifluoromethyl)-benzyl)-2,7-diazaspiro[4.4]-nonane-2-carbonyl)-N-methyl-1H-pyrazole-3-carboxamide]	< 0.1

Next, values leading:

IC50 [µM]	Structure (SMILES)
< 0.1	O=C(O)c1nn(C(=O)N2CCN(Cc3cc(F)cc(Oc4ccc(Cl)cc4)c3)CC2)cc1C(F)(F)F [Example 408, 1-(4-(3-(4-chlorophenoxy)-5-fluorobenzyl)-piperazine-1-carbonyl)-4-(trifluoromethyl)-1H-pyrazole-3-carboxylic acid]
< 0.1	O=C(O)c1nn(C(=O)N2CCN(Cc3cccc(Oc4cc(C(F)(F)F)ccn4)c3)CC2)cc1C(F)(F)F [Example 414, 4-(trifluoromethyl)-1-(4-(3-((4-(trifluoromethyl)-pyridin-2-yl)oxy)benzyl)-piperazine-1-carbonyl)-1H-pyrazole-3-carboxylic acid]
< 0.1	O=C(O)c1ccn(C(=O)N2CCC3(CCCN3Cc3ccc(C(F)(F)F)cc3N3CC4CCC(C3)O4)CC2)n1 [Example 416, 1-(1-(2-(8-oxa-3-azabicyclo[3.2.1]-octan-3-yl)-4-(trifluoromethyl)-benzyl)-1,8-diazaspiro[4.5]-decane-8-carbonyl)-1H-pyrazole-3-carboxylic acid]
< 0.1	NC(=O)c1ccn(C(=O)N2CCC3(CCN(Cc4cccc(C(F)(F)F)c4)C3)C2)n1 (stereo not shown) [Example 429, 1-(7-(3-(trifluoromethyl)-benzyl)-2,7-diazaspiro[4.4]-nonane-2-carbonyl)-1H-pyrazole-3-carboxamide]
< 0.1	NC(=O)c1ccn(C(=O)N2CCC3(CCN(Cc4cc(Cl)cc(C(F)(F)F)c4)C3)C2)n1 (stereo not shown) [Example 433, 1-(7-(3-chloro-5-(trifluoromethyl)-benzyl)-2,7-diazaspiro[4.4]-nonane-2-carbonyl)-1H-pyrazole-3-carboxamide]
< 0.1	CNC(=O)c1ccn(C(=O)N2C[C@H]3C[C@@H](N(C)Cc4ccccc4C(F)(F)F)C[C@H]3C2)n1 [Example 434, N-methyl-1-(cis-5-(methyl(2-(trifluoromethyl)-benzyl)amino)-octahydrocyclopenta-[c]pyrrole-2-carbonyl)-1H-pyrazole-3-carboxamide]
